One test deals with CDK2/Cyclin E (Homo sapiens, UniProt P24941). Put plainly: CDK2/Cyclin E biochemical phosphorylation assay (Caliper mobility shift). The settings on record: apparent IC50; 1.0 mM ATP or ATP Km; 1.25 nM enzyme; 25° C.; read-out: CDK2/cyclin E1 IC50. The method, then:
(§1) Inhibitory effects of the compounds of the disclosure were measured in biochemical assays that measure the enzymatic phosphorylation activity of CDK enzyme in complex of Cyclin proteins phosphorylates 7.5 micromolar fluorescently labelled peptide substrate, 5-FAM-QSPKKG-CONH2, (FL-Peptide 18, Perkin Elmer, 760362) in the presence of adenosine-5′-triphosphate (ATP) and varying concentrations of the test compound in 100 mM 2-[4-(2-hydroxyethyl)piperazin-1-yl] ethanesulfonic acid (HEPES), pH 7.5, 10 mM MgCl2, 0.015% Brij-35, 1 mM dithiothreitol (DTT), 1.0% dimethylsulfoxide (DMSO). Assays were performed at 1.0 mM ATP or at ATP Km of the CDK enzymes in complex with Cyclin proteins. Reactions proceeded until between 10% to 20% total peptides were phosphorylated at room temperature (25° C.) and were terminated with 35 mM 2,2′,2″,2′″-(ethane-1,2-diyldinitrilo)tetraacetic acid (EDTA). Product was detected using the Caliper mobility shift detection method where the phosphorylated peptide (product) and substrate were electrophoretically separated and measured. Percent activity was plotted against log concentration of compound and points to generate an apparent IC50. The following CDK enzymes in complex with different cyclin proteins were used in these assays: • CDK1/Cyclin B1, GST-tag (BPS, 40454), 1.5 nM used in the assay • CDK2/Cyclin E (Eurofins, 14-475), 1.25 nM used in the assays
(§2) For inhibitory activity against CDK2/Cyclin E mutant, the following designations are used: ≤10 nM=A; >10-20 nM=B; >20-30 nM=C; >30-100 nM=D and >100=E. For inhibition CDK1/Cyclin B1, GST-tag: ≥500 nM=A; <100-500 nM=B; <100 nM=C.

The next test has as its target T1, CDK1/Cyclin B1, GST-tag (Homo sapiens, UniProt P06493).
T1 construct: GST
Put plainly: CDK1/Cyclin B1 biochemical phosphorylation assay (Caliper mobility shift). Conditions: apparent IC50; 1.0 mM ATP or ATP Km; 1.5 nM enzyme; 25° C. As for the experimental part: as §1, §2

T1 sequence (P06493 whole entry): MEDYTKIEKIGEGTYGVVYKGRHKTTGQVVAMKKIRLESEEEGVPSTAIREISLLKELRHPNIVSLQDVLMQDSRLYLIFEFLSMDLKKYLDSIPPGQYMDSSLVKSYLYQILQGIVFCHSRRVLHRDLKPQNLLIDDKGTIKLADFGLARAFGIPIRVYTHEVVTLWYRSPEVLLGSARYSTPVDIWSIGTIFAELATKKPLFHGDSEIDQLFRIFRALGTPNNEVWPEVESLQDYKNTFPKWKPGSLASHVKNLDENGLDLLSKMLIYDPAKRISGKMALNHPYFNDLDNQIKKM
T1 sequence (P14635 whole entry partner): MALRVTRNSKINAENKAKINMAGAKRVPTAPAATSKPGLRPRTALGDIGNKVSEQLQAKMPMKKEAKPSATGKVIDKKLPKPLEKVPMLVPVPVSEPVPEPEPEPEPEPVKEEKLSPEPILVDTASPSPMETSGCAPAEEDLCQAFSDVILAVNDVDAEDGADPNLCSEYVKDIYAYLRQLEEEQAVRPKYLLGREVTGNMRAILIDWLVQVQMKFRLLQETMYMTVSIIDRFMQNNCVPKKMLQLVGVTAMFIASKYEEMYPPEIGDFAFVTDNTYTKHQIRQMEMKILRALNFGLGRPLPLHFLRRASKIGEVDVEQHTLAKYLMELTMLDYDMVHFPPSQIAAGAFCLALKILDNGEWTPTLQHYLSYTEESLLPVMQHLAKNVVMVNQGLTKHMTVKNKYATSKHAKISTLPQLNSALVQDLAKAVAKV

Turning to `FC[C@H](c1ccccn1)n1ncc2ncc(Nc3cc(OC(F)F)[nH]n3)nc21` (single isomer, unassigned) [Example 16, (S)—N-(5-(difluoromethoxy)-1H-pyrazol-3-yl)-1-(2-fluoro-1-(pyridin-2-yl)ethyl)-1H-pyrazolo[3,4-b]pyrazin-6-amine or (R)—N-(5-(difluoromethoxy)-1H-pyrazol-3-yl)-1-(2-fluoro-1-(pyridin-2-yl)ethyl)-1H-pyrazolo[3,4-b]pyrazin-6-amine], the IC50 on CDK2/Cyclin E is no more than 0.01 µM; on CDK1/Cyclin B1, GST-tag, no less than 0.5 µM.

As to `FC[C@@H](c1ccccc1)n1ncc2ncc(Nc3cc(OC(F)F)[nH]n3)nc21` (single isomer, unassigned) [Example 89, (R)-N-(5-(difluoromethoxy)-1H-pyrazol-3-yl)-1-(2-fluoro-1-phenylethyl)-1H-pyrazolo[3,4-b]pyrazin-6-amine or (S)-N-(5-(difluoromethoxy)-1H-pyrazol-3-yl)-1-(2-fluoro-1-phenylethyl)-1H-pyrazolo[3,4-b]pyrazin-6-amine], the IC50 on CDK2/Cyclin E was no more than 0.01 µM; at CDK1/Cyclin B1, GST-tag, no less than 0.5 µM.

Regarding `C[C@@H](c1cccnn1)n1ncc2ncc(Nc3cc(OC(F)F)[nH]n3)nc21` (single isomer, unassigned) [Example 24, (S)—N-(5-(difluoromethoxy)-1H-pyrazol-3-yl)-1-(1-(pyridazin-3-yl)ethyl)-1H-pyrazolo[3,4-b]pyrazin-6-amine or (R)—N-(5-(difluoromethoxy)-1H-pyrazol-3-yl)-1-(1-(pyridazin-3-yl)ethyl)-1H-pyrazolo[3,4-b]pyrazin-6-amine], the IC50 on CDK2/Cyclin E was no more than 0.01 µM; at CDK1/Cyclin B1, GST-tag, 0.1 to 0.5 µM.

Turning to `COc1cc(Nc2cnc3cnn([C@@H](CF)C4CCOCC4)c3n2)n[nH]1` (single isomer, unassigned) [Example 194, (R)-1-(2-fluoro-1-(tetrahydro-2H-pyran-4-yl)ethyl)-N-(5-methoxy-1H-pyrazol-3-yl)-1H-pyrazolo[3,4-b]pyrazin-6-amine or (S)-1-(2-fluoro-1-(tetrahydro-2H-pyran-4-yl)ethyl)-N-(5-methoxy-1H-pyrazol-3-yl)-1H-pyrazolo[3,4-b]pyrazin-6-amine], the IC50 at CDK2/Cyclin E is no more than 0.01 µM; on CDK1/Cyclin B1, GST-tag, 0.1 to 0.5 µM.

`COc1cc(Nc2cnc3cnn([C@@H](C)c4cccnc4)c3n2)n[nH]1` [Example 67, (S)-N-(5-methoxy-1H-pyrazol-3-yl)-1-(1-(pyridin-3-yl)ethyl)-1H-pyrazolo[3,4-b]pyrazin-6-amine]: the IC50 at CDK2/Cyclin E is no more than 0.01 µM; at CDK1/Cyclin B1, GST-tag, no less than 0.5 µM.

For the compound `FC(F)Oc1cc(Nc2cnc3cnn(C[C@H]4CCCO4)c3n2)n[nH]1` [Example 113, (R)-N-(5-(difluoromethoxy)-1H-pyrazol-3-yl)-1-((tetrahydrofuran-2-yl)methyl)-1H-pyrazolo[3,4-b]pyrazin-6-amine], the IC50 at CDK2/Cyclin E was 0.03 to 0.1 µM; at CDK1/Cyclin B1, GST-tag, no less than 0.5 µM.

As for `O[C@H]1C[C@H](n2ncc3ncc(Nc4cc(OC(F)F)[nH]n4)nc32)C1` (single isomer, unassigned) [Example 146, (1s,3s)-3-(6-((5-(difluoromethoxy)-1H-pyrazol-3-yl)amino)-1H-pyrazolo[3,4-b]pyrazin-1-yl)cyclobutan-1-ol or (1r,3r)-3-(6-((5-(difluoromethoxy)-1H-pyrazol-3-yl)amino)-1H-pyrazolo[3,4-b]pyrazin-1-yl)cyclobutan-1-ol], the IC50 at CDK2/Cyclin E is 0.02 to 0.03 µM; at CDK1/Cyclin B1, GST-tag, no less than 0.5 µM.

`C[C@@H]([C@@H]1COCCO1)n1ncc2ncc(Nc3cc(OC(F)F)[nH]n3)nc21` (single isomer, unassigned) [Example 214]: the IC50 on CDK2/Cyclin E is 0.01 to 0.02 µM; on CDK1/Cyclin B1, GST-tag, no less than 0.5 µM.

Regarding `C[C@@H](c1cnccc1F)n1ncc2ncc(Nc3cc(OC(F)F)[nH]n3)nc21` (single isomer, unassigned) [Example 174, (R)-N-(5-(difluoromethoxy)-1H-pyrazol-3-yl)-1-(1-(4-fluoropyridin-3-yl)ethyl)-1H-pyrazolo[3,4-b]pyrazin-6-amine or (S)-N-(5-(difluoromethoxy)-1H-pyrazol-3-yl)-1-(1-(4-fluoropyridin-3-yl)ethyl)-1H-pyrazolo[3,4-b]pyrazin-6-amine], the IC50 is greater than 0.1 µM at CDK2/Cyclin E and no less than 0.5 µM on CDK1/Cyclin B1, GST-tag.

As to `COc1cc(Nc2cnc3cnn(Cc4cccnc4)c3n2)n[nH]1` [Example 135, N-(5-methoxy-1H-pyrazol-3-yl)-1-(pyridin-3-ylmethyl)-1H-pyrazolo[3,4-b]pyrazin-6-amine], the IC50 is 0.01 to 0.02 µM on CDK2/Cyclin E and no less than 0.5 µM on CDK1/Cyclin B1, GST-tag.

For the compound `FC(F)Oc1cc(Nc2cnc3cnn(CC45CC(C4)C5)c3n2)n[nH]1` [Example 106, 1-(bicyclo[1.1.1]pentan-1-ylmethyl)-N-(5-(difluoromethoxy)-1H-pyrazol-3-yl)-1H-pyrazolo[3,4-b]pyrazin-6-amine], the IC50 was no more than 0.01 µM at CDK2/Cyclin E and 0.1 to 0.5 µM on CDK1/Cyclin B1, GST-tag.

As to `FC(F)Oc1cc(Nc2cnc3cnn([C@H](C4CCOCC4)C4CC4)c3n2)n[nH]1` (single isomer, unassigned) [Example 157, (S)-1-(cyclopropyl(tetrahydro-2H-pyran-4-yl)methyl)-N-(5-(difluoromethoxy)-1H-pyrazol-3-yl)-1H-pyrazolo[3,4-b]pyrazin-6-amine or (R)-1-(cyclopropyl(tetrahydro-2H-pyran-4-yl)methyl)-N-(5-(difluoromethoxy)-1H-pyrazol-3-yl)-1H-pyrazolo[3,4-b]pyrazin-6-amine], the IC50 was 0.03 to 0.1 µM on CDK2/Cyclin E and no less than 0.5 µM on CDK1/Cyclin B1, GST-tag.

Take `C[C@@H](CO)Cn1ncc2ncc(Nc3cc(OC(F)F)[nH]n3)nc21` [Example 198, (R)-3-(6-((5-(difluoromethoxy)-1H-pyrazol-3-yl)amino)-1H-pyrazolo[3,4-b]pyrazin-1-yl)-2-methylpropan-1-ol]: the IC50 is 0.03 to 0.1 µM on CDK2/Cyclin E and no less than 0.5 µM on CDK1/Cyclin B1, GST-tag.

For the compound `FC(F)Oc1cc(Nc2cnc3cnn([C@H](C(F)F)C4CCOCC4)c3n2)n[nH]1` (single isomer, unassigned) [Example 28, (S)-1-(2,2-difluoro-1-(tetrahydro-2H-pyran-4-yl)ethyl)-N-(5-(difluoromethoxy)-1H-pyrazol-3-yl)-1H-pyrazolo[3,4-b]pyrazin-6-amine or (R)-1-(2,2-difluoro-1-(tetrahydro-2H-pyran-4-yl)ethyl)-N-(5-(difluoromethoxy)-1H-pyrazol-3-yl)-1H-pyrazolo[3,4-b]pyrazin-6-amine], the IC50 at CDK2/Cyclin E was 0.02 to 0.03 µM; at CDK1/Cyclin B1, GST-tag, no less than 0.5 µM.

As for `C[C@@H](O)c1nn(CC2CCOCC2)c2nc(Nc3cc(OC(F)F)[nH]n3)cnc12` (single isomer, unassigned) [Example 176, (S)-1-(6-((5-(difluoromethoxy)-1H-pyrazol-3-yl)amino)-1-((tetrahydro-2H-pyran-4-yl)methyl)-1H-pyrazolo[3,4-b]pyrazin-3-yl)ethan-1-ol or (R)-1-(6-((5-(difluoromethoxy)-1H-pyrazol-3-yl)amino)-1-((tetrahydro-2H-pyran-4-yl)methyl)-1H-pyrazolo[3,4-b]pyrazin-3-yl)ethan-1-ol], the IC50 at CDK2/Cyclin E was no more than 0.01 µM; on CDK1/Cyclin B1, GST-tag, 0.1 to 0.5 µM.

As to `COc1cc(Nc2cnc3cnn(Cc4cncs4)c3n2)n[nH]1` [Example 75, N-(5-methoxy-1H-pyrazol-3-yl)-1-(thiazol-5-ylmethyl)-1H-pyrazolo[3,4-b]pyrazin-6-amine], the IC50 was 0.02 to 0.03 µM on CDK2/Cyclin E and no less than 0.5 µM on CDK1/Cyclin B1, GST-tag.

The values are drawn from patent US11970498B2, “CDK2 inhibitors” (BLUEPRINT MEDICINES CORPORATION, priority 2021, dated 2024).
